Laboratory results from patent US8580809B2, “Filamin A-binding anti-inflammatory analgesic” (Pain Therapeutics, Inc., priority 2009, dated 2013).

Key:
filamin A = filamin A (Homo sapiens, UniProt P21333); details: read-out: affinity of binding to filamin A; cited from earlier work
mu opiate receptor (MOR) = biological target: T1, mu opiate receptor (MOR) (Rattus norvegicus, UniProt P33535); assay: MOR agonist activity using [35S]GTPγS binding assay in striatal membranes; format: biochemical; details: for MOR agonist activity, [35S]GTPγS binding to Gαo, FLNA-binding compound as agonist 0.1 μM: 0.1 μM compound; for MOR agonist activity, [35S]GTPγS binding to Gαo, FLNA-binding compound as agonist 0.1 μM / MOR agonist activity, [35S]GTPγS binding to Gαo, FLNA-binding compound as agonist 1 μM: striatal membranes; for MOR agonist activity, [35S]GTPγS binding to Gαo, 1 μM + BFNA: 1 μM compound + 1 μM β-funaltrexamine; for MOR agonist activity, [35S]GTPγS binding to Gαo, FLNA-binding compound as agonist 1 μM: 1 μM compound
T1 construct: from tissue; host or cells: rat striatal membrane preparation
Experimental: To assess the mu opiate receptor (MOR) agonist activity of positive compounds from the FLNA screening, compounds were tested in a [^35S]GTPγS binding assay using striatal membranes.
Striatal tissue was homogenized in 10 volumes of ice cold 25 mM HEPES buffer, pH 7.4, which contained 1 mM EGTA, 100 mM sucrose, 50 μg/ml leupeptin, 0.04 mM PMSF, 2 μg/ml soybean trypsin inhibitor and 0.2% 2-mercaptoethanol. The homogenates were centrifuged at 800×g for 5 minutes and the supernatants were centrifuged at 49,000×g for 20 minutes.
The resultant striatal membrane preparation (200 μg) was admixed and maintained (incubated) at 30° C. for 5 minutes in reaction buffer as above that additionally contained 1 mM MgCl2 and 0.5 nM [^35S]GTPγS (0.1 μCi/assay, PerkinElmer Life and Analytical Sciences) in a total volume of 250 μl and continued for 5 minutes in the absence or presence of 0.1-10 μM of an assayed compound of interest. The reaction was terminated by dilution with 750 μl of ice-cold reaction buffer that contained 20 mM MgCl2 and 1 mM EGTA and immediate centrifugation at 16,000×g for 5 minutes.
The resulting pellet was solubilized by sonicating for 10 seconds in 0.5 ml of immunoprecipitation buffer containing 0.5% digitonin, 0.2% sodium cholate and 0.5% NP-40. Normal rabbit serum (1 μl) was added to 1 ml of lysate and incubated at 25° C. for 30 minutes. Nonspecific immune complexes were removed by incubation with 25 μl of protein A/G-conjugated agarose beads at 25° C. for 30 minutes followed by centrifugation at 5,000×g at 4° C. for 5 minutes. The supernatant was divided and separately incubated at 25° C. for 30 minutes with antibodies raised against Gαo proteins (1:1,000 dilutions).
The immunocomplexes so formed were collected by incubation at 25° C. for 30 minutes with 40 μl of agarose-conjugated protein A/G beads and centrifugation at 5,000×g at 4° C. for 5 minutes. The pellet was washed and suspended in buffer containing 50 mM Tris-HCl, pH 8.0, and 1% NP-40. The radioactivity in the suspension was determined by liquid scintillation spectrometry. […] DAMGO (H-Tyr-D-Ala-Gly-N-MePhe-Gly-OH; 1 or 10 μM) was used as a positive control.

[1] = Mouse hot-water tail-flick test; format: in vivo; details: for mean maximum antinociception amount: 56 mg/kg
Experimental: The mouse “tail flick” test was used to assay the relative antinociceptive activity of compositions containing a compound to be assayed. This assay was substantially that disclosed by Xie et al., 2005 J. Neurosci 25:409-416.
The mouse hot-water tail-flick test was performed by placing the distal third of the tail in a water bath maintained at 52° C. The latency until tail withdrawal from the bath was determined and compared among the treatments. A 10 second cutoff was used to avoid tissue damage. Data are converted to percentage of antinociception by the following formula: (response latency−baseline latency)/(cutoff−baseline latency)×100 to generate dose-response curves. […] Relative potency was determined as a ratio of the A50 values.
To assess tolerance to the antinociceptive effect, the compound was administered twice daily for 7 days at an A90 dose (dose that results in a 90% antinociceptive effect in the 52° C. warm-water tail-flick test), and the tail-flick test was performed daily after the a.m. dose.

MOR = MOR (Rattus norvegicus, UniProt P33535); assay: Relative Gs/Go switching: MOR-G protein coupling in organotypic striatal slice cultures; details: for Go (MOR level in anti-Gαo immunoprecipitates), average / Gs/Go-Coupled Ratio, average / Gs/olf (MOR level in anti-Gαs/olf immunoprecipitates), average: striatal slice culture
Experimental: The threshold for significance was p<0.05.
Striatal slices (200 μM thickness) were prepared using a McIlwain tissue chopper (Mickle Laboratory Engineering Co., Surrey, UK).

primary human astrocytes = assay: LPS-induced cytokine release from primary human astrocytes; format: cell-based; details: 2 hours prior to LPS and 24 hours

T1 sequence (P33535 whole entry): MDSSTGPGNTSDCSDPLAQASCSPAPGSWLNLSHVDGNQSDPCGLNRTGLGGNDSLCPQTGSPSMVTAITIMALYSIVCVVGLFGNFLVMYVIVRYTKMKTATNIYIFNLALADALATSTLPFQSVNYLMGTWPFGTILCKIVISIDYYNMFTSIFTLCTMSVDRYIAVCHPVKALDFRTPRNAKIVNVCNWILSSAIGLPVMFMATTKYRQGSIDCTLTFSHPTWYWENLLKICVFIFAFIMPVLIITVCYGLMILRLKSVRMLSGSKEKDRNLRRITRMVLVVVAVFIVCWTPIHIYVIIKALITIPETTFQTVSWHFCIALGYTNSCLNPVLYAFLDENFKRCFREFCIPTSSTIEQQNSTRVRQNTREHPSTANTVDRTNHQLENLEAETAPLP
Sequence of MOR (P33535 whole entry): as above
Sequence of filamin A (P21333 whole entry): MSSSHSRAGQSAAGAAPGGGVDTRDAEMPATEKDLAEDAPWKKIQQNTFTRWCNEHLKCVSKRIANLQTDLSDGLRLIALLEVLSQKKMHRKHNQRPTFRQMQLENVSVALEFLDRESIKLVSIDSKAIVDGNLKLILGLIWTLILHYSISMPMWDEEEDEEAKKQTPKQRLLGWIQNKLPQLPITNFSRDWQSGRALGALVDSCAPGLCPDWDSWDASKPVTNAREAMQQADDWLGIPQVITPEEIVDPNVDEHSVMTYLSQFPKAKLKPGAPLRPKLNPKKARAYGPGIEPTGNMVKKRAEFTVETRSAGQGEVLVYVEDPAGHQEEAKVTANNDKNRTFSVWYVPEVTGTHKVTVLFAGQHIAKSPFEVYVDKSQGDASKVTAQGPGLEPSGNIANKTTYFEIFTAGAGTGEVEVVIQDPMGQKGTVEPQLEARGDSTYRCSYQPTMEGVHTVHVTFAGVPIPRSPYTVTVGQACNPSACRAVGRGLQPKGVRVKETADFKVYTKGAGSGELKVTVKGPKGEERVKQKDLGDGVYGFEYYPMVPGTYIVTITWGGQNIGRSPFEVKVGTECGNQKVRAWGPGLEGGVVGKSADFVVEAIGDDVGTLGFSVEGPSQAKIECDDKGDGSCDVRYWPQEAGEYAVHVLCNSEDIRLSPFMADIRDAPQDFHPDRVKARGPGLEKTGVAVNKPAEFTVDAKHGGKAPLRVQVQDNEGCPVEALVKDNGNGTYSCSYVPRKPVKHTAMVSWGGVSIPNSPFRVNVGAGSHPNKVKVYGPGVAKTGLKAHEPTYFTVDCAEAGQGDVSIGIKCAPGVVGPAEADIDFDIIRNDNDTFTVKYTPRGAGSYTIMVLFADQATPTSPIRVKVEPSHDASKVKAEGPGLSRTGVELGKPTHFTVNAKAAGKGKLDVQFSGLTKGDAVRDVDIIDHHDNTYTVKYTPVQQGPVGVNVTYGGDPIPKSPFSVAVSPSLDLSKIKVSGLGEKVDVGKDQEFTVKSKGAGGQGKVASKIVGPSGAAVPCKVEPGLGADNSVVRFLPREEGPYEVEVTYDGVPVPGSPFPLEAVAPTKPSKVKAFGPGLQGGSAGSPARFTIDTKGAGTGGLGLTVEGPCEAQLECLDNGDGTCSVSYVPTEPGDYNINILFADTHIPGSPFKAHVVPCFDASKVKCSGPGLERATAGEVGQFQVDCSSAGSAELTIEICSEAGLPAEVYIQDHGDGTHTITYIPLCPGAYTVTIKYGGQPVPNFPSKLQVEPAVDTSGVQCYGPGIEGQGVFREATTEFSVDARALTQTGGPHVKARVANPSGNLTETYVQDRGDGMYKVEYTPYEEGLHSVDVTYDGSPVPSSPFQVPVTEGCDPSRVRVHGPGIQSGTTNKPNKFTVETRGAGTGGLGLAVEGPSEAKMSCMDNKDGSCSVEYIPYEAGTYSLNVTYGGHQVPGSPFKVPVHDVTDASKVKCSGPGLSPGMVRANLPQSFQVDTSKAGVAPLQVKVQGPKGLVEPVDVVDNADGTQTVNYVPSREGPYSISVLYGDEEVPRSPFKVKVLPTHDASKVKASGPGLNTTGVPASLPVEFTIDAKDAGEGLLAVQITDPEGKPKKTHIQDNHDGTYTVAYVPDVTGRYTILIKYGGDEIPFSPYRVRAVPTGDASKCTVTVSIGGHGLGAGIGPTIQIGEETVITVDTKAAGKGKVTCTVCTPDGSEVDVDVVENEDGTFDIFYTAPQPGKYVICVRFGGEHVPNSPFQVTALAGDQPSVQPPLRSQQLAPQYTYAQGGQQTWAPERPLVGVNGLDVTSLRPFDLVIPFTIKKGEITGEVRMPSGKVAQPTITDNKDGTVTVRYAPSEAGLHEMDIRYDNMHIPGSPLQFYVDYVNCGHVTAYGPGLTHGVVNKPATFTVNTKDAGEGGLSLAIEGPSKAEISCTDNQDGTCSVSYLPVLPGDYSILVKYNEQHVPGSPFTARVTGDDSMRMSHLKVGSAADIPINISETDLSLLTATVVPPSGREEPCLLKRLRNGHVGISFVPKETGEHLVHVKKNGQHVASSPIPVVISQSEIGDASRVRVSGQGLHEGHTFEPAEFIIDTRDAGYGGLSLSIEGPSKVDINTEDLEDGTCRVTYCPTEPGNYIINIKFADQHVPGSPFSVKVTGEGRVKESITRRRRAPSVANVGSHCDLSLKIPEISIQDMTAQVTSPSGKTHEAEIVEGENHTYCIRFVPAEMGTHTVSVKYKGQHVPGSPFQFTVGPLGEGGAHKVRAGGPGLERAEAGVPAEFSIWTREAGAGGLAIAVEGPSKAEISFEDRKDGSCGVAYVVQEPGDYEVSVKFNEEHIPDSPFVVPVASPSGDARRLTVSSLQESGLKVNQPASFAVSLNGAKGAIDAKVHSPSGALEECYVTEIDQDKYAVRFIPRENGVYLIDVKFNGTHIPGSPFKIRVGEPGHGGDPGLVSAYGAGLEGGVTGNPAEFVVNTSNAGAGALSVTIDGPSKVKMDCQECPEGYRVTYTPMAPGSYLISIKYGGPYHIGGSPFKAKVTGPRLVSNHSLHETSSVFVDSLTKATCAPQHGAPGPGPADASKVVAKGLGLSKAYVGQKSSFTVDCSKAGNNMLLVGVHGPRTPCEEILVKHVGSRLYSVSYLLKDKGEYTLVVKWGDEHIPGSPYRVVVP

| Compound | MOR agonist activity, [35S]GTPγS binding to Gαo, FLNA-binding compound as agonist 0.1 μM (mu opiate receptor (MOR)) [%] | MOR agonist activity, [35S]GTPγS binding to Gαo, 1 μM + BFNA (mu opiate receptor (MOR)) [%] | MOR agonist activity, [35S]GTPγS binding to Gαo, FLNA-binding compound as agonist 1 μM (mu opiate receptor (MOR)) [%] | also measured |
| --- | --- | --- | --- | --- |
| C=CCN1CC[C@]23c4c5ccc(O)c4O[C@H]2C(=O)CC[C@@]3(O)[C@H]1C5 [Naloxone, naloxone] | – | – | – | Kd (filamin A): ~4 pM |
| CC(=O)c1ccc(S(=O)(=O)N2CCC3(CC2)OCCN3S(=O)(=O)c2ccc(C(C)=O)cc2)cc1 [Compound C0011] | 217.0 | 19.0 | 305.0 | mean maximum antinociception amount ([1]; oral, at about 10-20 minutes): about 70%; Go (MOR level in anti-Gαo immunoprecipitates), average (MOR; 10 μM): 1603.3; Gs/Go-Coupled Ratio, average (MOR; 10 μM): 0.332; Gs/olf (MOR level in anti-Gαs/olf immunoprecipitates), average (MOR; 10 μM): 534.3; Go (MOR level in anti-Gαo immunoprecipitates), average (MOR; 100 μM): 1598.8; Gs/Go-Coupled Ratio, average (MOR; 100 μM): 0.420; Gs/olf (MOR level in anti-Gαs/olf immunoprecipitates), average (MOR; 100 μM): 658.2 |
| C=CCN1CC[C@]23c4c5ccc(O)c4O[C@H]2C(=O)CC[C@]3(O)[C@H]1C5 [(+)Naloxone, (+)naloxone, reference compound] | – | – | – | IL-1β Average % (±SEM) (primary human astrocytes; 10 pM): 75.9 (4.5) %; IL-6 Average % (±SEM) (primary human astrocytes; 10 pM): 56.9 (4.4) %; TNF-α Average % (±SEM) (primary human astrocytes; 10 pM): 58.6 (2.0) %; IL-1β Average % (±SEM) (primary human astrocytes; 1 nM): 10.5 (4.8) %; IL-6 Average % (±SEM) (primary human astrocytes; 1 nM): 6.8 (4.3) %; TNF-α Average % (±SEM) (primary human astrocytes; 1 nM): 9.2 (6.0) % |
| CN1CC[C@]23c4c5ccc(O)c4O[C@H]2[C@@H](O)C=C[C@H]3[C@H]1C5 [morphine, reference compound] | – | – | – | A50 value (95% confidence interval) ([1]; orally administered, mouse, 52° C. tail flick): 61.8 (52.4−72.9) mg/kg |
| O=C1CC[C@@]2(O)[C@H]3Cc4ccc(O)c5c4[C@@]2(CCN3CC2CC2)[C@H]1O5 [NTX, naltrexone] | – | – | – | Kd (filamin A): ~4 pM |
| CS(=O)(=O)c1ccc(S(=O)(=O)N2CCC3(CC2)OCCN3S(=O)(=O)c2ccc(S(C)(=O)=O)cc2)cc1 [Compound C0009] | 146.3 | 26.4 | 256.2 | mean maximum antinociception amount ([1]; oral, at about 10 minutes): about 50% |
| COc1ccc(S(=O)(=O)N2CCOC23CCN(S(=O)(=O)c2ccc(C(C)=O)cc2)CC3)cc1 [Compound C0047] | 142.2 | 80.1 | 206.1 | mean maximum antinociception amount ([1]; at about 20-30 minutes): about 35% |
| COc1ccc2c3c1O[C@H]1C(=O)CC[C@@]4(O)[C@@H](C2)N(C)CC[C@]314 [Oxycodone, oxycodone, reference compound] | – | – | – | Go (MOR level in anti-Gαo immunoprecipitates), average (MOR; 10 μM): 900.4; switch of μ opioid receptor G protein coupling from Go to Gs (MOR; 7 days of twice daily 1-hour exposures, organotypic striatal slice cultures): switch from Go to Gs coupling |
| O=C1CN(Cc2ccccc2)C2(CCN(S(=O)(=O)c3cc(Cl)c(O)c(Cl)c3)CC2)N1 [Compound C0139M] | 156.1 | 51.0 | 206.6 | IL-1β Average % (±SEM) (primary human astrocytes; 10 pM): 83.4 (3.0) %; IL-6 Average % (±SEM) (primary human astrocytes; 10 pM): 76.6 (3.1) %; TNF-α Average % (±SEM) (primary human astrocytes; 10 pM): 77.0 (3.2) %; IL-1β Average % (±SEM) (primary human astrocytes; 1 nM): 78.2 (0.7) %; IL-6 Average % (±SEM) (primary human astrocytes; 1 nM): 80.1 (7.0) %; TNF-α Average % (±SEM) (primary human astrocytes; 1 nM): 77.5 (1.8) %; IL-1β Average % (±SEM) (primary human astrocytes; 100 nM): 70.5 (1.6) %; IL-6 Average % (±SEM) (primary human astrocytes; 100 nM): 80.2 (6.3) %; TNF-α Average % (±SEM) (primary human astrocytes; 100 nM): 72.7 (2.5) %; IL-1β Average % (±SEM) (primary human astrocytes; 100 fM): 84.5 (2.6) %; IL-6 Average % (±SEM) (primary human astrocytes; 100 fM): 82.6 (1.6) %; TNF-α Average % (±SEM) (primary human astrocytes; 100 fM): 74.8 (4.3) % |
| Cc1cccc(S(=O)(=O)N2CCC3(CC2)OCCN3S(=O)(=O)c2cccc(C)c2)c1 [Compound C0014] | 144.9 | 76.3 | 153.5 | – |
| COc1ccc(C(=O)N2CCC3(CC2)OCCN3C(=O)c2ccc(OC)cc2)cc1 [Compound C0017] | 153.8 | 94.1 | 284.5 | – |
| O=S(=O)(c1ccc2ccccc2c1)N1CCC2(CC1)OCCN2S(=O)(=O)c1ccc2ccccc2c1 [Compound C0140M] | 126.1 | 83.0 | 215.4 | – |
| O=S(=O)(c1ccc(Oc2ccccc2)cc1)N1CCC2(CC1)OCCN2S(=O)(=O)c1ccc(Oc2ccccc2)cc1 [Compound C0149M] | 209.8 | 93.4 | 406.7 | – |
| COc1ccc(NC(=O)N2CCC3(CC2)OCCN3C(=O)Nc2ccc(OC)cc2)cc1 [Compound C0151M] | 346.8 | 212.8 | 397.6 | – |
| CC(=O)c1ccc(S(=O)(=O)N2CCC3(CC2)NC(=O)CN3Cc2ccccc2)cc1 [Compound C0085M] | 211.6 | 43.7 | 246.2 | – |
| O=S(=O)(c1ccccc1)N1CCC2(CC1)OCCN2S(=O)(=O)c1ccccc1 [Compound C0016] | 172.7 | 96.7 | 230.5 | – |
| CC(=O)c1ccc(C(=O)N2CCC3(CC2)OCCN3S(=O)(=O)c2ccc(C(C)=O)cc2)cc1 [Compound C0052] | 108.4 | 42.7 | 162.8 | mean maximum antinociception amount ([1]; oral, at about 20 minutes): about 30% |
| COc1ccc(S(=O)(=O)N2CCCC3(C2)OCCN3S(=O)(=O)c2ccc(OC)cc2)cc1 (stereo not drawn) [Compound C0145M] | 193.0 | 87.0 | 289.2 | – |
| O=C(c1ccc([N+](=O)[O-])cc1)N1CCC2(CC1)OCCN2C(=O)c1ccc([N+](=O)[O-])cc1 [Compound C0032] | 145.4 | 80.9 | 202.0 | – |
